Reference: US20090258949A1, “AMORPHOUS FORM OF CINACALCET” (priority 2006, published 2009)
Structures can show the parent of a compound that is named as a salt.

Experiment: Stress stability of amorphous Cinacalcet Hydrochloride, assay by HPLC
Type: physicochemical
Settings: stressed in a closed vial at 60° C. for 24 hours
Procedure: A sample of amorphous Cinacalcet Hydrochloride from Example 1 was stressed in a closed vial at 60° C. for 24 hours. […] Vol 7 μm; temperature 40° C. sample preparation: approximately 10 mg of sample dissolved in 25 ml of eluent B gradient: [table] Area %/mg of starting material and stressed sample were compared

- decrease in assay measured by HPLC (area %/mg of starting material and stressed sample compared): No decrease in assay
Compound: C[C@@H](NCCCc1cccc(C(F)(F)F)c1)c1cccc2ccccc12 [N-[1-(R)-(−)-(1-naphthyl)ethyl]-3-[3-(trifluoromethyl)phenyl]-1-aminopropane hydrochloride]
